Entries after “also recorded” stand apart in the source; their conditions may differ.
What was measured:
ERα-SRC3 interaction = target: T1, ERα-SRC3 interaction (Homo sapiens, UniProt P03372); test: co-immunoprecipitation of ERα and SRC3 in MCF-7 cells; assay type: cell-based; conditions: 10 nM E2 or 1 μM PaPE-1, 1 h
T1 construct: endogenous in cells; host or cells: MCF-7
T1 sequence (P03372 1-595): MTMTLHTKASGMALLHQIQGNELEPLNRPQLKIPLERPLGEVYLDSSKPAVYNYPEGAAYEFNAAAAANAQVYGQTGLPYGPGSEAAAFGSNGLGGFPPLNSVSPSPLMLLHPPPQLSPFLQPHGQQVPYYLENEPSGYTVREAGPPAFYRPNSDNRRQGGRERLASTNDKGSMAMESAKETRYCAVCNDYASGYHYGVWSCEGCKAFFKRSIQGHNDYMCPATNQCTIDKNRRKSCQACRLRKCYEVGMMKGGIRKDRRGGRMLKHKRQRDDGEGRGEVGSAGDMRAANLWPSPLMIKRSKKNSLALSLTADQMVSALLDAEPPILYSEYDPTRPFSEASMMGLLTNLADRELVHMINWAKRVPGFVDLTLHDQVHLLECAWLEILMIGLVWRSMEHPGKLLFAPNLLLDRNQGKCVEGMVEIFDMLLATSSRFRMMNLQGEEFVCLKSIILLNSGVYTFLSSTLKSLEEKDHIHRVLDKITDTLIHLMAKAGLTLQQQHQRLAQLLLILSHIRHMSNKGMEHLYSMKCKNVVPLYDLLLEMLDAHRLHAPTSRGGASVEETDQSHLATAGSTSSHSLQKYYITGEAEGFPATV
Text: FIG. 10. Estrogen receptor and coactivator binding and interaction assays with ligands and ligand dissociation rates. […] After ligand treatment, cell lysates were immunoprecipitated with antibody to SRC3 or control IgG, and immunoprecipitates were separated on SDS PAGE gels and blotted for ERα using anti-ERα antibody. […] For details, see methods below.
Western blot analysis used specific antibodies for ERα (HC-20, Santa Cruz); ERK2 (D-2, Santa Cruz); and pS^6, pS6K, pmTOR, pRAPTOR, pRICTOR, pMAPK (Cell Signaling). Coimmunoprecipitation assays used antibodies for SRC3 (Santa Cruz, C-20) and ERα (Santa Cruz, F10).

[1] = tested on: ERα knock-out (ERKO) C57BL/6 mice; test: effects in ERα knock-out (ERKO) mice; assay type: in vivo; conditions: 3 weeks; listed as PaPE-1
Protocol: FIG. 13. Effects of PaPE-1 require ERα. […] Animals were on normal chow diet. Change in body weight was monitored. (B) Uterus weights of animals from (A) at the end of 3 weeks of vehicle (Veh) or ligand treatment. (C) Triglyceride levels in the blood of animals from (A) after 3 weeks of ligand exposure.
Studies used wild type and ERα knockout mice in C57BL/6 background. All experiments involving animals were conducted in accordance with National Institutes of Health standards for the use and care of animals, with protocols approved by the University of Illinois at Urbana-Champaign and the University of Texas Southwestern Medical Center. Wild-type C57BL/6 mice were purchased from Jackson Laboratories/National Cancer Institute. ERα knockout mice with complete excision of ERα and wild type littermates were obtained from Taconic and were used as described previously in Dupont et al., Development, 127, 4277-4291, […], and Hewitt et al. FASEB J., 24, 4660-4667, 2010.

SMILES: Cc1cc(-c2ccc3c(c2)CCC3O)cc(C)c1O (racemic) [Compound 2, 5-(4-hydroxy-3,5-dimethylphenyl)-2,3-dihydro-1H-inden-1-ol]
- coimmunoprecipitation of ERα with SRC3 (ERα-SRC3 interaction): no coimmunoprecipitated complexes were observed
- ability to diminish body weight gain after ovariectomy in ERKO mice [1]: lost in the ERKO mice; also recorded: require ERα

— US10703698B2, “Compounds which activate estrogen receptors and compositions and methods of using the same” (The Board of Trustees of the University of Illinois, priority 2016, dated 2020)
